Structures are written as SMILES.

Experiment [1] addresses T1, hSERT (Homo sapiens, UniProt P31645). Description: hSERT membrane radioligand binding assay (3H-citalopram), Assay 1. As to conditions: SERT pKi, hSERT HEK-293 membranes, 1.0 nM 3H-citalopram; values given as lower bounds.
For experiment [2], the target named is T2, hNET (Homo sapiens, UniProt P23975). Nature of the experiment: hNET membrane radioligand binding assay (3H-nisoxetine), Assay 1.
Protocol: Membrane radioligand binding assays were used to measure inhibition of labeled ligand (^3H-citalopram or ^3H-nisoxetine or ^3H-WIN35428) binding to membranes prepared from cells expressing the respective human recombinant transporter (hSERT or hNET or hDAT) in order to determine the pKi values of test compounds at the transporters.
Recombinant human embryonic kidney (HEK-293) derived cell lines stably transfected with hSERT or hNET, respectively, were grown in DMEM medium supplemented with 10% dialyzed FBS (for hSERT) or FBS (for hNET), 100 μg/mL penicillin, 100 μg/mL streptomycin, 2 mM L-glutamine and 250 μg/mL of the aminoglycoside antibiotic G418, in a 5% CO2 humidified incubator at 37° C. When cultures reached 80% confluence, the cells were washed thoroughly in PBS (without Ca^2+ and Mg^2+) and lifted with 5 mM EDTA in PBS. Cells were pelleted by centrifugation, resuspended in lysis buffer (10 mM Tris-HCl, pH7.5 containing 1 mM EDTA), homogenized, pelleted by centrifugation, then resuspended in 50 mM Tris-HCl, pH 7.5 and 10% sucrose at 4° C. Protein concentration of the membrane suspension was determined using a Bio-Rad Bradford Protein Assay kit. Membranes were snap frozen and stored at −80° C.
Binding assays were performed in a 96-well assay plate in a total volume of 200 μl assay buffer (50 mM Tris-HCl, 120 mM NaCl, 5 mM KCl, pH 7.4) with 0.5, 1, and 3 μg membrane protein, for SERT, NET and DAT, respectively.
Stock solutions (10 mM in DMSO) of test compound were prepared and serial dilutions made using Dilution Buffer (50 mM Tris-HCl, 120 mM NaCl, 5 mM KCl, pH 7.4, 0.1% BSA, 400 μM ascorbic acid).
Following a 60 minute incubation at 22° C. (or a period sufficient to reach equilibrium), the membranes were harvested by rapid filtration over a 96-well UniFilter GF/B plate, pretreated with 0.3% polyethyleneimine, and washed 6 times with 300 μl wash buffer (50 mM Tris-HCl, 0.9% NaCl, pH 7.5 at 4° C.). Plates were dried overnight at room temperature, approximately 45 μl of MicroScint™-20 (Perkin Elmer) added and bound radioactivity quantitated via liquid scintillation spectroscopy. Inhibition curves and saturation isotherms were analyzed using GraphPad Prism Software package (GraphPad Software, Inc., San Diego, Calif.). IC50 values were generated from concentration response curves using the Sigmoidal Dose Response (variable slope) algorithm in Prism GraphPad.
Experiment [3] addresses T2, hNET. Description: hNET neurotransmitter uptake assay (3H-NE), Assay 2. It is filed as cell-based. Also on record: expressed in transfected cells; host or cells: HEK-293. The conditions noted are these: norepinephrine reuptake inhibition, 3H-NE uptake, HEK-293 hNET cells (values without asterisk); read-out: NET pIC50 (converted).
Experiment [4] has as its target T1, hSERT. Nature of the experiment: hSERT neurotransmitter uptake assay (3H-5-HT), Assay 2. Set-up: expressed in transfected cells; host or cells: HEK-293. It is filed as cell-based. The conditions noted are these: serotonin reuptake inhibition, 3H-5-HT uptake, HEK-293 hSERT cells (values without asterisk); read-out: SERT pIC50 (converted).

T2 sequence (P23975 whole entry): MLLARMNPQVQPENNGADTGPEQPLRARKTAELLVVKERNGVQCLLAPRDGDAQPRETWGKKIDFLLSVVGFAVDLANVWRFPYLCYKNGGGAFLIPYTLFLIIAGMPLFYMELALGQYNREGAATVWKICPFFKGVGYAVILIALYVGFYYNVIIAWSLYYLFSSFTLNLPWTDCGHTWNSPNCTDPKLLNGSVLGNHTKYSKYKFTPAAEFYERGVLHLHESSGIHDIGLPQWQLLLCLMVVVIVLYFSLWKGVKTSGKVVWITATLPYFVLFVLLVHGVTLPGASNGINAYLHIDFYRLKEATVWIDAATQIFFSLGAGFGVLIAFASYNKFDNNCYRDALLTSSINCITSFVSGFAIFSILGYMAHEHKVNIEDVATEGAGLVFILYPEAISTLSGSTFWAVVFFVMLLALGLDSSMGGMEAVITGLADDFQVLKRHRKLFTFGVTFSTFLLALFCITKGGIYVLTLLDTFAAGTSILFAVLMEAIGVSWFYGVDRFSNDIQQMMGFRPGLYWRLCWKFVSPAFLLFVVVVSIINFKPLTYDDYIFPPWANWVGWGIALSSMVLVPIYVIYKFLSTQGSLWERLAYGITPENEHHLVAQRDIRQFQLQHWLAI
T1 sequence (P31645 whole entry): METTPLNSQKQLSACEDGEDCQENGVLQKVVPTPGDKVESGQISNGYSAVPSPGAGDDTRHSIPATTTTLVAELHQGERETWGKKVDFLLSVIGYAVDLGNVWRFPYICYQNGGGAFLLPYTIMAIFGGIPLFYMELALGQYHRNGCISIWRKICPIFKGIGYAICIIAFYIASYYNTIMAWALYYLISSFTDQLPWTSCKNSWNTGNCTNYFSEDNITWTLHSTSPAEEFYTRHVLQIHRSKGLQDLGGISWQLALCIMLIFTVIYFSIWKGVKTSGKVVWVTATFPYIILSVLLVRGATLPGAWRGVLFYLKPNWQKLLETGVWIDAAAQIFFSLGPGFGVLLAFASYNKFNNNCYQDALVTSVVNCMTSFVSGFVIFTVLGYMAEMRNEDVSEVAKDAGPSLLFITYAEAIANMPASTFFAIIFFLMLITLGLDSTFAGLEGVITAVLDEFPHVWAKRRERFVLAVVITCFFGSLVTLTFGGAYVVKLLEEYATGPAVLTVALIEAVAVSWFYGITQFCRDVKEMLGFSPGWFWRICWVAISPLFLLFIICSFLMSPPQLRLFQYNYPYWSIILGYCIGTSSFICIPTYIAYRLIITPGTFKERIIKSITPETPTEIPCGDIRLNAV

As a reminder, the Ki is the equilibrium dissociation constant of an inhibitor or competing ligand from its target. Higher therefore signals weaker binding. On to `CC[C@H](Oc1ccc(Cl)cc1F)[C@H]1CCNC1` [Example 2-47, (S)-3-[(S)-1-(4-Chloro-2-fluorophenoxy)propyl]pyrrolidine], for which the Ki on hSERT [1] and at hNET [2] was at most 10 nM throughout. Further, the IC50 on hNET [3] is at most 10 nM; at hSERT [4] it was at most 100 nM.

Turning to `CC[C@H](Oc1ccc(Cl)cc1Cl)[C@H]1CCNC1` [Example 1, (S)-3-[(S)-1-(2,4-Dichlorophenoxy)propyl]pyrrolidine], the Ki at hSERT [1] and on hNET [2] was at most 10 nM in each case. Besides, the IC50 on hNET [3] and at hSERT [4] was at most 10 nM each time.

On to `CCC[C@H](Oc1ccc(C)cc1Cl)[C@H]1CCNC1` [Example 4-37, (S)-3-[(S)-1-(2-Chloro-4-methylphenoxy)butyl]pyrrolidine], for which the Ki at hSERT [1] and at hNET [2] was at most 10 nM in each case. For the same compound, the IC50 on hNET [3] and on hSERT [4] was at most 10 nM each time.

As for `CC(C)[C@H](Oc1cccc(F)c1Cl)[C@H]1CCNC1` [Example 6-17, (S)-3-[(S)-1-(2-Chloro-3-fluorophenoxy)-2-methylpropyl]pyrrolidine], the Ki on hSERT [1] and on hNET [2] was at most 10 nM in each case. In addition, the IC50 at hNET [3] and on hSERT [4] was at most 10 nM throughout.

Take `CC(C)C[C@H](Oc1ccc(Cl)cc1)[C@H]1CCNC1` [Example 10-13, (S)-3-[(S)-1-(4-Chlorophenoxy)-3-methylbutyl]pyrrolidine]: the inhibition constant (Ki) on hSERT [1] and on hNET [2] was at most 10 nM each time. In addition, the IC50 at hNET [3] and on hSERT [4] was at most 10 nM throughout.

Consider `CC(C)[C@H](Oc1c(F)cc(Cl)cc1Cl)[C@H]1CCNC1` [Example 6-30, (S)-3-[(S)-1-(2,4-Dichloro-6-fluorophenoxy)-2-methylpropyl]pyrrolidine], for which the inhibition constant (Ki) at hSERT [1] and at hNET [2] was at most 10 nM each time. Also, the IC50 at hNET [3] and on hSERT [4] was at most 10 nM in each case.

`CC(C)CC(Oc1cc(Cl)cc(Cl)c1)C1CCNC1` (stereo not shown) [Example 10-78, 3-[1-(3,5-Dichlorophenoxy)-3-methylbutyl]pyrrolidine]: the Ki at hSERT [1] and on hNET [2] was at most 10 nM in each case. Besides, the IC50 at hNET [3] and on hSERT [4] was at most 10 nM throughout.

Turning to `Cc1cc(Cl)ccc1O[C@@H](C1CC1)[C@H]1CCNC1` [Example 16-29, (S)-3-[(S)-(4-Chloro-2-methylphenoxy)cyclopropylmethyl]pyrrolidine], the Ki on hSERT [1] and at hNET [2] was at most 10 nM throughout. The IC50 at hNET [3] and on hSERT [4] was at most 10 nM throughout.

In the case of `CC[C@H](Oc1c(F)ccc(Cl)c1F)[C@H]1CCNC1` [Example 2-52, (S)-3-[(S)-1-(3-Chloro-2,6-difluorophenoxy)propyl]pyrrolidine], the Ki at hSERT [1] and on hNET [2] was at most 10 nM throughout. Moreover, the IC50 at hNET [3] is at most 10 nM; on hSERT [4], at most 100 nM.

In the case of `CC(C)[C@H](Oc1c(F)ccc(F)c1Cl)[C@H]1CCNC1` [Example 6-36, (S)-3-[(S)-1-(2-Chloro-3,6-difluorophenoxy)-2-methylpropyl]pyrrolidine], the Ki at hSERT [1] and at hNET [2] was at most 10 nM in each case. The IC50 at hNET [3] was at most 10 nM; on hSERT [4], at most 100 nM.

For the compound `CC(C)CC(Oc1cc(F)cc(Cl)c1)C1CCNC1` (stereo not shown) [Example 10-82, 3-[1-(3-Chloro-5-fluorophenoxy)-3-methylbutyl]pyrrolidine], the Ki at hSERT [1] and on hNET [2] was at most 10 nM each time. In addition, the IC50 on hNET [3] and on hSERT [4] was at most 10 nM throughout.

`Cc1c(Cl)cccc1O[C@@H](C(C)C)[C@H]1CCNC1` [Example 6-39, (S)-3-[(S)-1-(3-Chloro-2-methylphenoxy)-2-methylpropyl]pyrrolidine]: the inhibition constant (Ki) at hSERT [1] and at hNET [2] was at most 10 nM throughout. The IC50 on hNET [3] and at hSERT [4] was at most 10 nM in each case.

Consider `CC[C@@H](Oc1cccc2ccccc12)[C@H]1CCNC1` [Example 14-1, (S)-3-[(R)-1-(Naphthalen-1-yloxy)propyl]pyrrolidine], for which the Ki on hSERT [1] and at hNET [2] was at most 10 nM throughout. For the same compound, the IC50 at hNET [3] and on hSERT [4] was at most 10 nM in each case.

Consider `CC(C)[C@@H](Oc1cc(Cl)cc(Cl)c1)[C@H]1CCNC1` [Example 6-68, (S)-3-[(R)-1-(3,5-Dichlorophenoxy)-2-methylpropyl]pyrrolidine], for which the Ki at hSERT [1] and at hNET [2] was at most 10 nM each time. Further, the IC50 on hNET [3] and at hSERT [4] was at most 10 nM throughout.

For the compound `COc1ccc(F)c(O[C@H](C2CC2)[C@H]2CCNC2)c1Cl` [Example 16-65, (S)-3-[(R)-(2-Chloro-6-fluoro-3-methoxyphenoxy)cyclopropylmethyl]pyrrolidine], the Ki on hSERT [1] and at hNET [2] was at most 10 nM in each case. For the same compound, the IC50 on hNET [3] and at hSERT [4] was at most 10 nM each time.

Regarding `COc1cc(Cl)ccc1O[C@@H](CC(C)C)[C@H]1CCNC1` [Example 10-49, (S)-3-[(S)-1-(4-Chloro-2-methoxyphenoxy)-3-methylbutyl]pyrrolidine], the Ki on hSERT [1] and at hNET [2] was at most 10 nM each time. For the same compound, the IC50 at hNET [3] and at hSERT [4] was at most 10 nM throughout.

For `CC(C)[C@H](Oc1c(F)ccc(Cl)c1Cl)[C@H]1CCNC1` [Example 6-34, (S)-3-[(S)-1-(2,3-Dichloro-6-fluorophenoxy)-2-methylpropyl]pyrrolidine], the Ki at hSERT [1] and on hNET [2] was at most 10 nM in each case. The IC50 at hNET [3] and at hSERT [4] was at most 10 nM in each case.

Turning to `CC[C@H](Oc1ccc(Cl)c(F)c1Cl)[C@H]1CCNC1` [Example 2-42, (S)-3-[(S)-1-(2,4-Dichloro-3-fluorophenoxy)propyl]pyrrolidine], the Ki on hSERT [1] and on hNET [2] was at most 10 nM each time. Further, the IC50 at hNET [3] and on hSERT [4] was at most 10 nM throughout.

Turning to `Fc1cc(O[C@H](C2CC2)[C@H]2CCNC2)ccc1Cl` [Example 16-91, (S)-3-[(R)-(4-Chloro-3-fluorophenoxy)cyclopropylmethyl]pyrrolidine], the inhibition constant Ki at hSERT [1] and at hNET [2] was at most 10 nM throughout. The IC50 at hNET [3] and on hSERT [4] was at most 10 nM each time.

With `CC[C@H](Oc1c(Cl)ccc(Cl)c1Cl)[C@H]1CCNC1` [Example 2-37, (S)-3-[(S)-1-(2,3,6-Trichlorophenoxy)propyl]pyrrolidine], the Ki on hSERT [1] and at hNET [2] was at most 10 nM each time. In addition, the IC50 on hNET [3] was at most 10 nM; at hSERT [4], at most 100 nM.

As to `CC(C)C[C@H](Oc1cccc(Cl)c1C(F)(F)F)[C@H]1CCNC1` [Example 10-36, (S)-3-[(S)-1-(3-Chloro-2-trifluoromethylphenoxy)-3-methylbutyl]pyrrolidine], the Ki at hSERT [1] and at hNET [2] was at most 10 nM each time. Further, the IC50 at hNET [3] and on hSERT [4] was at most 10 nM in each case.

For `CC(C)CC(Oc1c(F)ccc(F)c1Cl)C1CCNC1` (stereo not shown) [Example 10-62, 3-[1-(2-Chloro-3,6-difluorophenoxy)-3-methylbutyl]pyrrolidine], the Ki at hSERT [1] and at hNET [2] was at most 10 nM throughout. Also, the IC50 at hNET [3] and on hSERT [4] was at most 10 nM each time.

The values are drawn from US7994209B2, “3-phenoxymethylpyrrolidine compounds” (Theravance, Inc., priority 2009, dated 2011).
